Measured values: ChEMBL document CHEMBL1201862, “PubChem BioAssay data set” (2004)
Where “and” joins values, the source holds several entries; their conditions need not be identical. Equal values may be shown once.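 Five concentrations, 48 hours, 96-well plates. The concentration for 50% growth inhibition is given as GI50.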 Calls of active or inactive are those of the source. Rule as the data show it: active = GI50 up to about 1.1 µM and inactive = higher.

How the values were obtained:
Test in all cases: NCI tumour cell line growth inhibition, 48 h
786-0 = test system: 786-0
A549 = test system: A549
ACHN = test system: ACHN
CAKI-1 = test system: CAKI-1
COLO 205 = test system: COLO 205
DLD-1 = test system: DLD-1
DMS-114 = test system: DMS-114
DMS-273 = test system: DMS-273
HCC 2998 = test system: HCC 2998
HCT-116 = test system: HCT-116
HCT-15 = test system: HCT-15
HL-60 = test system: HL-60
HOP-62 = test system: HOP-62
HOP-92 = test system: HOP-92
HT-29 = test system: HT-29
IGROV-1 = test system: IGROV-1
K562 = test system: K562
KM-20L2 = test system: KM-20L2
KM12 = test system: KM12
LOX IMVI = test system: LOX IMVI
LXFL 529 = test system: LXFL 529
M14 = test system: M14
M19-MEL = test system: M19-MEL
MOLT-4 = test system: MOLT-4
Malme-3M = test system: Malme-3M
NCI-H226 = test system: NCI-H226
NCI-H23 = test system: NCI-H23
NCI-H460 = test system: NCI-H460
NCI-H522 = test system: NCI-H522
OVCAR-3 = test system: OVCAR-3
OVCAR-4 = test system: OVCAR-4
OVCAR-5 = test system: OVCAR-5
OVCAR-8 = test system: OVCAR-8
RPMI-8226 = test system: RPMI-8226
RXF 393 = test system: RXF 393
SF-268 = test system: SF-268
SF-295 = test system: SF-295
SF-539 = test system: SF-539
SK-MEL-28 = test system: SK-MEL-28
SK-MEL-5 = test system: SK-MEL-5
SK-OV-3 = test system: SK-OV-3
SN12C = test system: SN12C
SNB-19 = test system: SNB-19
SNB-75 = test system: SNB-75
SNB-78 = test system: SNB-78
SR = test system: SR
SW-620 = test system: SW-620
TK-10 = test system: TK-10
U-251 = test system: U-251
UACC-257 = test system: UACC-257
UACC-62 = test system: UACC-62
UO-31 = test system: UO-31
XF498 = test system: XF498
A498 = test system: A498
EKVX = test system: EKVX
SK-MEL-2 = test system: SK-MEL-2

In the case of `CC1(C)C(=O)C(C)(C)C1=NN`, the GI50 (786-0) is reported as > 100 µM (inactive), the GI50 (A549) is reported as > 100 µM (inactive) and the GI50 (ACHN) is reported as > 100 µM (inactive). The GI50 (CAKI-1) was > 100 µM (inactive), the GI50 (COLO 205) was > 100 µM (inactive) and the GI50 (DLD-1) was > 100 µM (inactive). The GI50 (DMS-114) was > 100 µM (inactive), the GI50 (DMS-273) was > 100 µM (inactive) and the GI50 (HCC 2998) was > 100 µM (inactive). For the same compound, the GI50 (HCT-116) was > 100 µM (inactive), the GI50 (HCT-15) was > 100 µM and the GI50 (HL-60) was > 100 µM (inactive). For the same compound, the GI50 (HOP-62) was > 100 µM (inactive), the GI50 (HOP-92) was > 100 µM (inactive) and the GI50 (HT-29) was > 100 µM (inactive). For the same compound, the GI50 (IGROV-1) was > 100 µM (inactive), the GI50 (K562) was > 100 µM (inactive) and the GI50 (KM-20L2) was > 100 µM (inactive). For the same compound, the GI50 (KM12) was > 100 µM (inactive), the GI50 (LOX IMVI) was > 100 µM (inactive) and the GI50 (LXFL 529) was > 100 µM (inactive). The GI50 (M14) was > 100 µM (inactive), the GI50 (M19-MEL) was > 100 µM (inactive) and the GI50 (MOLT-4) was > 100 µM (inactive). For the same compound, the GI50 (Malme-3M) was > 100 µM (inactive), the GI50 (NCI-H226) was > 100 µM (inactive) and the GI50 (NCI-H23) was > 100 µM (inactive). For the same compound, the GI50 (NCI-H460) was > 100 µM (inactive), the GI50 (NCI-H522) was > 100 µM (inactive) and the GI50 (OVCAR-3) was > 100 µM (inactive). The GI50 (OVCAR-4) was > 100 µM (inactive), the GI50 (OVCAR-5) was > 100 µM (inactive) and the GI50 (OVCAR-8) was > 100 µM (inactive). The GI50 (RPMI-8226) was > 100 µM (inactive), the GI50 (RXF 393) was > 100 µM (inactive) and the GI50 (SF-268) was > 100 µM (inactive). The GI50 (SF-295) was > 100 µM (inactive), the GI50 (SF-539) was > 100 µM (inactive) and the GI50 (SK-MEL-28) was > 100 µM (inactive). The GI50 (SK-MEL-5) was > 100 µM (inactive), the GI50 (SK-OV-3) was > 100 µM (inactive) and the GI50 (SN12C) was > 100 µM (inactive). For the same compound, the GI50 (SNB-19) was > 100 µM (inactive), the GI50 (SNB-75) was > 100 µM (inactive) and the GI50 (SNB-78) was > 100 µM (inactive). The GI50 (SR) was > 100 µM (inactive), the GI50 (SW-620) was > 100 µM (inactive) and the GI50 (TK-10) was > 100 µM (inactive). The GI50 (U-251) was > 100 µM (inactive), the GI50 (UACC-257) was > 100 µM (inactive) and the GI50 (UACC-62) was > 100 µM (inactive). The GI50 (UO-31) was > 100 µM (inactive) and the GI50 (XF498) was > 100 µM (inactive).
With `CC1(O)CC2C(CC1SCc1ccccc1)C2(C)C` (stereo not given) the GI50 (786-0) was 15.8 µM (inactive) and 21.7 µM (inactive), the GI50 (A498) was 18.3 µM (inactive) and 28.1 µM (inactive) and the GI50 (ACHN) was 16.8 µM (inactive) and 18.2 µM (inactive). For the same compound, the GI50 (CAKI-1) was 15.8 µM (inactive) and 12.5 µM (inactive), the GI50 (COLO 205) was 20 µM (inactive) and 16.9 µM (inactive) and the GI50 (DMS-114) was 14.5 µM (inactive). The GI50 (DMS-273) was 14.2 µM (inactive) and 17.9 µM (inactive), the GI50 (EKVX) was 16.7 µM (inactive) and 29.7 µM (inactive) and the GI50 (HCT-116) was 16.6 µM (inactive) and 21.2 µM (inactive). The GI50 (HCT-15) was 16.9 µM and 22.3 µM, the GI50 (HOP-62) was 24.9 µM (inactive) and 16.6 µM (inactive) and the GI50 (HT-29) was 16.4 µM (inactive) and 23.1 µM (inactive). The GI50 (KM-20L2) was 20.6 µM (inactive) and 26.6 µM (inactive), the GI50 (KM12) was 19.3 µM (inactive) and 25.3 µM (inactive) and the GI50 (LOX IMVI) was 17.1 µM (inactive) and 15.5 µM (inactive). For the same compound, the GI50 (M14) was 30.1 µM (inactive) and 15.5 µM (inactive), the GI50 (Malme-3M) was 22 µM (inactive) and 16.3 µM (inactive) and the GI50 (NCI-H226) was 21.5 µM (inactive) and 16 µM (inactive). For the same compound, the GI50 (NCI-H23) was 23.3 µM (inactive) and 14.2 µM (inactive), the GI50 (NCI-H460) was 14.6 µM (inactive) and 22.9 µM (inactive) and the GI50 (NCI-H522) was 13.7 µM (inactive) and 11.9 µM (inactive). The GI50 (OVCAR-3) was 12.3 µM (inactive) and 16.9 µM (inactive), the GI50 (OVCAR-5) was 17.9 µM (inactive) and 17.1 µM (inactive) and the GI50 (OVCAR-8) was 16.5 µM (inactive) and 29.4 µM (inactive). For the same compound, the GI50 (RPMI-8226) was 11.9 µM (inactive) and 19.8 µM (inactive), the GI50 (RXF 393) was 15.3 µM (inactive) and 18.5 µM (inactive) and the GI50 (SF-268) was 25.9 µM (inactive) and 18.7 µM (inactive). The GI50 (SF-295) was 28.2 µM (inactive), the GI50 (SF-539) was 28.8 µM (inactive) and 19.3 µM (inactive) and the GI50 (SK-MEL-28) was 21 µM (inactive) and 29.3 µM (inactive). For the same compound, the GI50 (SK-MEL-2) was 17.3 µM (inactive) and 11.4 µM (inactive), the GI50 (SK-MEL-5) was 23.6 µM (inactive) and 13.1 µM (inactive) and the GI50 (SN12C) was 16.1 µM (inactive) and 23.2 µM (inactive). The GI50 (SW-620) was 17.5 µM (inactive) and 21.7 µM (inactive), the GI50 (U-251) was 16 µM (inactive) and 21.2 µM (inactive) and the GI50 (UACC-62) was 32.4 µM (inactive) and 19.3 µM (inactive). The GI50 (XF498) was 20.5 µM (inactive) and 15.2 µM (inactive).
